We go through 1 compound from US20230172958A1, “USE OF COMPOUNDS FOR TREATING VIRAL INFECTIONS” (priority 2020, published 2023).

The test system of series [1] is SARS-CoV-2. Put plainly: Neutral Red reduction of virus-induced cytopathic effect (primary CPE assay) in Vero 76 cells. Format: cell-based. As to conditions: Severe acute respiratory syndrome coronavirus 2, virus-inhibitory. In general terms: Protection from cytopathic effect is a common read-out in antiviral testing.
The test system of series [2] is SARS-CoV-2. Nature of the series: Antiviral screening by qRT-PCR in VeroE6 cells. Format: cell-based. As to conditions: Severe acute respiratory syndrome coronavirus 2, Vero C1008, 10 μM. (In general: In qPCR the cycle at which signal appears reflects the starting amount.)
Series [3] can be described thus: Neutral Red toxicity assay, uninfected cultures. As to conditions: African green monkey, Vero 76 cells (uninfected monolayers), cell-inhibitory. Type of series: cell-based. How it is done:
Confluent or near-confluent cell culture monolayers of Vero 76 cells were prepared in 96-well disposable microplates the day before testing. Cells were maintained in MEM (Minimum Essential Medium Eagle) supplemented with 5% FBS (Fetal Bovine Serum). For antiviral assays the same medium was used but with FBS reduced to 2% and supplemented with 50-μg/ml gentamicin.
Compounds were dissolved in DMSO, saline or the diluent. […] The test compound was prepared at four serial log10 concentrations, usually 0.1, 1.0, 10, and 100 μg/ml or μM. Lower concentrations were used when insufficient compound was supplied. Five microwells were used per dilution: three for infected cultures and two for uninfected toxicity cultures. Controls for the experiment consisted of six microwells that were infected and not treated (virus controls) and six that were untreated and uninfected (cell controls) on every plate. A known active drug was tested in parallel as a positive control drug using the same method as was applied for test compounds. The positive control was tested with every test run.
Growth media was removed from the cells and the test compound was applied in 0.1 ml volume to wells at 2× concentration. Virus, normally at ˜60 CCID50 (50% cell culture infectious dose) in 0.1 ml volume is added to the wells designated for virus infection. Medium devoid of virus was placed in toxicity control wells and cell control wells. […] The plates were then stained with 0.011% neutral red for approximately two hours at 37° C. in a 5% CO2 incubator. The neutral red medium was removed by complete aspiration, and the cells may be rinsed 1× with phosphate buffered solution (PBS) to remove residual dye. The PBS was completely removed, and the incorporated neutral red was eluted with 50% Sorensen's citrate buffer/50% ethanol for at least 30 minutes. Neutral red dye penetrates into living cells, thus, the more intense the red color, the larger the number of viable cells present in the wells. The dye content in each well was quantified using a spectrophotometer at 540 nm wavelength. The dye content in each set of wells was converted to a percentage of dye present in untreated control wells using a Microsoft Excel computer-based spreadsheet and normalized based on the virus control. The 50% effective (EC50, virus-inhibitory) concentrations and 50% cytotoxic (CC50, cell-inhibitory) concentrations are then calculated by regression analysis. The quotient of CC50 divided by EC50 gives the selectivity index (SI) value.

Series [4] in a line: Pre-clinical GLP and non-GLP toxicity and safety studies. Type of series: in vivo. How it is done:
(§1) Various pre-clinical GLP (Good Laboratory Practice) and non-GLP studies were performed with the compound of Formula E. These included 7-day and 28- days studies on rats and dogs, acute toxicity in rats, mice and dogs. The effect of the compound of Formula E on respiratory function, nervous system and cardiovascular system, bacterial mutation, metabolism, CaCo2 permeability, protein binding and cytochrome effect was also studied.

For series [5], the system named is Human Peripheral Blood Lymphocytes. Put plainly: MTT toxicity assay on normal cells. Type of series: cell-based. As to conditions: 48 hours. How it is done:
Toxicity studies of compounds of the present invention on normal cells The toxicity study was performed on Human Peripheral Blood Lymphocytes obtained differential centrifugation of defibrinated blood. MTT assay for compound of the present invention was performed to determine its toxicity. MTT assay is a simple and sensitive assay where, metabolic reducing activity of the cells is measured. It was carried out in the following manner.
A required volume of cell suspension was prepared as per the cell plating efficiency. 200 μl of prepared cell suspension was added in labelled 96 well plates and the plates were placed in an incubator for 18-24 hours at 37° C. and 5% CO2. Then, 2 μl of respective compound dilution was added and the plates were placed in the incubator for 48 hours at 37° C. and 5% CO2. The suspension was aspirated from the plates and 100 μl of working MTT solution (0.5 mg/ml MTT prepared from 5 mg/ml MTT stock in 1× complete media) was added. The plates were incubated in the incubator for 4 hours at 37° C. and 5% CO2. The plates were spinned down, supernatant removed, 200 μl DMSO was added, mixed gently and placed in the incubator for 10 minutes at 37° C. and 5% CO2. The absorbance at 570 nm was read and percentage viability and IC50 value of the compounds was calculated using regression analysis.

Series [6] can be described thus: physchem.
A short description of series [7]: Bacterial mutation study. How it is done: as §1
Series [8] in a line: Cytotoxicity by Hoechst 33342 / Sytox orange staining. Type of series: cell-based. As to conditions: African green monkey, Vero E6 cells. How it is done: The assay was done in a 96 well plate format in 3 wells for each sample. 1×10e4 Vero E6 cells were plated per well and incubated at 37° C. overnight for monolayer formation. Next day, cells were incubated with the test substance (TS) at the indicated concentration with final DMSO concentration being 0.5%. The Control cells were incubated with 0.5% DMSO only. 24 and 48 hours later, cells were stained with Hoechst 33342 and Sytox orange dye. Images were taken at 10×, 16 images per well, which covers 90% of the well area using ImageXpress Microconfocal (Molecular Devices). Hoechst 33342 nucleic acid stain is a popular cell-permanent nuclear counterstain that emits blue fluorescence when bound to dsDNA. It stains all the live and dead cells. Sytox orange dye stains the nucleic acid in the cells with compromised membranes. This stain is an indicator of cell death. First, the software will count total number of cells in the Hoechst image. In the Sytox image, it will count, among Hoechst positive cells, how many cells are positive for Sytox.

The test system of series [9] is SARS-CoV-2. Put plainly: Anti SARS-CoV-2 IC50 estimation by qRT-PCR in VeroE6 cells. Type of series: cell-based. Particulars: Severe acute respiratory syndrome coronavirus 2, Vero C1008.

Read-outs that look alike come from different tables or passages of the source.

As for `COC1COC(Oc2ccc(-c3ccc4c(c3)OCO4)c3ccccc23)C(O)C1OC` (stereo not drawn) [Compound of Formula E, 2-(1-(benzo[d][1,3]dioxol-5-yl)naphthalen-4-yloxy)-tetrahydro-4,5-dimethoxy-2H-pyran-3-ol], the midpoint of the response in [1], the EC50, lay at 0.35 mg/L. Further, the inhibition (in general, the share of the control response that was lost under treatment) at 10 µM was determined as 75.4% in series [2] (24 hours post infection, E gene, read-out: % inhibition of virus replication 24 hours post infection E); 81.3% in [2] (24 hours post infection, N gene, read-out: % inhibition of virus replication 24 hours post infection N); 99.5% in [2] (48 hours post infection, E gene, read-out: % inhibition of virus replication 48 hours post infection E); 99.7% in [2] (48 hours post infection, N gene, read-out: % inhibition of virus replication 48 hours post infection N). Besides, the cytotoxic concentration (CC50) (commonly the concentration giving 50% cytotoxicity) in series [3] was found to be 2.5 mg/L. Further, in series [4] (2000 mg/kg in rats, mice and dogs), the “toxic or adverse effect at higher dose” value was “did not show any toxic or adverse effect”. The “toxicity in pre-clinical studies” value in series [4] (7-day and 28-days studies on rats and dogs, acute toxicity in rats, mice and dogs) is reported as “non-toxic”. The clastogenicity result in series [4] (in vivo) is reported as “non-clastogenic”. The “effect on the respiratory, nervous and cardiovascular system” value in [4] (in vivo) is recorded as “no effect”. The “IC50 (μM)” value in series [5] was “No activity (Nontoxic)”. Besides, the logP – broadly, the decadic logarithm of the partition coefficient of the neutral form, usually between octanol and water – in series [6] was ~4. The mutagenicity result in series [7] was “non-mutagenic”. Besides, the viability – broadly, the share of living cells, or the viability signal relative to a control – at 24 h, 10 µM in series [8] (24 hours, read-out: % Cell viability 24 hours) turned out to be 99.6%. Besides, the viability at 48 h, 10 µM in series [8] (48 hours, read-out: % Cell viability 48 hours) was 77.8%. In addition, the IC50 (in general, the concentration needed to halve the response being measured) was 0.571 µM in [9] (VeroE6, MOI 0.01, 48 hours, qRT-PCR E gene, read-out: IC50 value (μM) E gene); 0.586 µM in series [9] (VeroE6, MOI 0.01, 48 hours, qRT-PCR N gene, read-out: IC50 value (μM) N gene); < 10 µM in series [9] (conclusion statement, read-out: anti-SARS-CoV-2 activity IC50).
